In PMC8841437 (Clinical and Translational Science, 2021):

Tests used:
[1] = tested on: arterial and venous thrombosis; conditions: preclinical models of arterial and venous thrombosis; cited from earlier work
[2] = tested on: healthy participants; assay: Safety and tolerability; assay type: in vivo, human
[3] = MAD panel 7, 5 mg q.d. fasted, n = 6
[4] = MAD panel 8, 20 mg q.d. fasted, n = 6
[5] = MAD panel 9, 70 mg q.d. fasted, n = 6
[6] = MAD panel 10, 200 mg q.d. fasted, n = 6
[7] = MAD panel 11, 500 mg q.d. fed, n = 6
[8] = MAD panel 12, 35 mg b.i.d. fasted, n = 6
[9] = MAD panel 13, 200 mg b.i.d. fasted, n = 6

In the case of C[C@@H]1CCC[C@H](n2cnc(-c3cc(Cl)ccc3-n3cc(Cl)nn3)cc2=O)c2cc(ccn2)-c2c(cnn2C(F)F)NC1=O [milvexian], the antithrombotic activity [1] is given as “antithrombotic activity while preserving homeostasis”, the epistaxis ([2]; MAD 5-mg q.d. group) is given as “one participant” and the gingival bleeding ([2]; MAD 5-mg q.d. group, considered treatment-related, mild) is given as “one participant”. For the same compound, the petechia ([2]; MAD 70-mg q.d. group, considered treatment-related, mild) was “one participant”, the “Abdominal discomfort (TEAE)” value [2, 3] was 1 (16.7) n (%) and the “Abdominal pain (TEAE)” value [2, 3] was 0 n (%). For the same compound, the “Any TEAE” value [2, 3] was 4 (66.7) n (%), the “Diarrhea (TEAE)” value [2, 3] was 1 (16.7) n (%) and the “Dizziness (TEAE)” value [2, 3] was 0 n (%). The “Headache (TEAE)” value [2, 3] was 2 (33.3) n (%), the “Nausea (TEAE)” value [2, 3] was 0 n (%) and the “Oropharyngeal pain (TEAE)” value [2, 3] was 0 n (%). For the same compound, the “Pain in extremity (TEAE)” value [2, 3] was 0 n (%), the “discontinuation of treatment because of an AE (macular rash)” value ([2]; MAD panel 7, after one dose of 5 mg) was “one participant” and the “Abdominal discomfort (TEAE)” value [2, 4] was 0 n (%). The “Abdominal pain (TEAE)” value [2, 4] was 0 n (%), the “Any TEAE” value [2, 4] was 1 (16.7) n (%) and the “Diarrhea (TEAE)” value [2, 4] was 0 n (%). The “Dizziness (TEAE)” value [2, 4] was 0 n (%), the “Headache (TEAE)” value [2, 4] was 1 (16.7) n (%) and the “Nausea (TEAE)” value [2, 4] was 0 n (%). For the same compound, the “Oropharyngeal pain (TEAE)” value [2, 4] was 0 n (%), the “Pain in extremity (TEAE)” value [2, 4] was 0 n (%) and the “Abdominal discomfort (TEAE)” value [2, 5] was 1 (16.7) n (%). For the same compound, the “Abdominal pain (TEAE)” value [2, 5] was 1 (16.7) n (%), the “Any TEAE” value [2, 5] was 5 (83.3) n (%) and the “Diarrhea (TEAE)” value [2, 5] was 3 (50.0) n (%). The “Dizziness (TEAE)” value [2, 5] was 1 (16.7) n (%), the “Headache (TEAE)” value [2, 5] was 2 (33.3) n (%) and the “Nausea (TEAE)” value [2, 5] was 1 (16.7) n (%). The “Oropharyngeal pain (TEAE)” value [2, 5] was 0 n (%), the “Pain in extremity (TEAE)” value [2, 5] was 1 (16.7) n (%) and the “Abdominal discomfort (TEAE)” value [2, 6] was 0 n (%). For the same compound, the “Abdominal pain (TEAE)” value [2, 6] was 1 (16.7) n (%), the “Any TEAE” value [2, 6] was 4 (66.7) n (%) and the “Diarrhea (TEAE)” value [2, 6] was 1 (16.7) n (%). The “Dizziness (TEAE)” value [2, 6] was 0 n (%), the “Headache (TEAE)” value [2, 6] was 1 (16.7) n (%) and the “Nausea (TEAE)” value [2, 6] was 2 (33.3) n (%). The “Oropharyngeal pain (TEAE)” value [2, 6] was 1 (16.7) n (%), the “Pain in extremity (TEAE)” value [2, 6] was 1 (16.7) n (%) and the “Abdominal discomfort (TEAE)” value [2, 7] was 0 n (%). The “Abdominal pain (TEAE)” value [2, 7] was 0 n (%), the “Any TEAE” value [2, 7] was 3 (50.0) n (%) and the “Diarrhea (TEAE)” value [2, 7] was 0 n (%). For the same compound, the “Dizziness (TEAE)” value [2, 7] was 0 n (%), the “Headache (TEAE)” value [2, 7] was 0 n (%) and the “Nausea (TEAE)” value [2, 7] was 0 n (%). The “Oropharyngeal pain (TEAE)” value [2, 7] was 0 n (%), the “Pain in extremity (TEAE)” value [2, 7] was 0 n (%) and the “Abdominal discomfort (TEAE)” value [2, 8] was 0 n (%). For the same compound, the “Abdominal pain (TEAE)” value [2, 8] was 0 n (%), the “Any TEAE” value [2, 8] was 2 (33.3) n (%) and the “Diarrhea (TEAE)” value [2, 8] was 0 n (%). The “Dizziness (TEAE)” value [2, 8] was 1 (16.7) n (%), the “Headache (TEAE)” value [2, 8] was 0 n (%) and the “Nausea (TEAE)” value [2, 8] was 0 n (%). For the same compound, the “Oropharyngeal pain (TEAE)” value [2, 8] was 0 n (%), the “Pain in extremity (TEAE)” value [2, 8] was 0 n (%) and the “Abdominal discomfort (TEAE)” value [2, 9] was 0 n (%). For the same compound, the “Abdominal pain (TEAE)” value [2, 9] was 0 n (%), the “Any TEAE” value [2, 9] was 2 (33.3) n (%) and the “Diarrhea (TEAE)” value [2, 9] was 0 n (%). The “Dizziness (TEAE)” value [2, 9] was 1 (16.7) n (%), the “Headache (TEAE)” value [2, 9] was 0 n (%) and the “Nausea (TEAE)” value [2, 9] was 0 n (%). For the same compound, the “Oropharyngeal pain (TEAE)” value [2, 9] was 1 (16.7) n (%), the “Pain in extremity (TEAE)” value [2, 9] was 0 n (%) and the “Diarrhea (TEAE)” value ([2]; MAD panels, milvexian) was 11.9%. For the same compound, the “Headache (TEAE)” value ([2]; MAD panels, milvexian) was 14.3%.
